The target of assay [1] is T1, Aminopeptidase N (Plasmodium falciparum FcB1/Columbia, UniProt O96935).
T1 sequence (O96935 whole entry): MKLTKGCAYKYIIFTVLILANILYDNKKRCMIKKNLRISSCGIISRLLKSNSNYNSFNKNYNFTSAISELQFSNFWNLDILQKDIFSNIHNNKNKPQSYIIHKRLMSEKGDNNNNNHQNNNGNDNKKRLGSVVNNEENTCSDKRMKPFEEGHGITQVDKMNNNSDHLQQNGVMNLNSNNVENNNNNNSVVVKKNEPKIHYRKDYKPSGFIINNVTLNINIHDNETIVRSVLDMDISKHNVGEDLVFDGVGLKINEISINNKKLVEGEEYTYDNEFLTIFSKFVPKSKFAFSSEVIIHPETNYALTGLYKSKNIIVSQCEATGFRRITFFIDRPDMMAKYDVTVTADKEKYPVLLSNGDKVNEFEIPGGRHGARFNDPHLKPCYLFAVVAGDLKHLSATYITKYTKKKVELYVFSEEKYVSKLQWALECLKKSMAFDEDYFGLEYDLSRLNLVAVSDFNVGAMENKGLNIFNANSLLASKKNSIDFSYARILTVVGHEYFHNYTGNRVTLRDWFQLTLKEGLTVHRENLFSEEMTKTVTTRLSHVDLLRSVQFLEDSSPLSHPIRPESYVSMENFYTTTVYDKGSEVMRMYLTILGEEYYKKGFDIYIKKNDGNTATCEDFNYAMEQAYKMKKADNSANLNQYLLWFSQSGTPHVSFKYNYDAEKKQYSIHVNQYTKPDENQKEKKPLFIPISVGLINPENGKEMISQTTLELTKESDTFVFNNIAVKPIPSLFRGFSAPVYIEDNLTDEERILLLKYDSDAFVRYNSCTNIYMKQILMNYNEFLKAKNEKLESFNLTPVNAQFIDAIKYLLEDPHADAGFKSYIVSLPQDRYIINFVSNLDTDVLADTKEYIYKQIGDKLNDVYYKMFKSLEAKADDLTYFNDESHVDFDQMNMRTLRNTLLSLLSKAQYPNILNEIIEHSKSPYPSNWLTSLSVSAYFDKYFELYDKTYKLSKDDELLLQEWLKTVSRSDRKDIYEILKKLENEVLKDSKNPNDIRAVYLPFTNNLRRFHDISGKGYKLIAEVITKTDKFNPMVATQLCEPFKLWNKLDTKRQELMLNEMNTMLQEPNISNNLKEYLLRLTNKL
The assay is described as follows: malaria alanyl aminopeptidase activity blockers – biochemical, fluorogenic H-Leu-NHMec substrate, 1536-well (AID 1445). Also on record: species or system Plasmodium falciparum 3D7, 3D7.

Assay [2] concerns the target Cytochrome P450 3A4 (Homo sapiens, UniProt P08684). The following applies: Potency.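 Further: confirmatory qHTS run detecting inhibitors and substrates of CYP3A4.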
In assay [3] the target is T2, Leucine aminopeptidase (Plasmodium falciparum 3D7, UniProt Q8IL11).
T2 sequence (Q8IL11 whole entry): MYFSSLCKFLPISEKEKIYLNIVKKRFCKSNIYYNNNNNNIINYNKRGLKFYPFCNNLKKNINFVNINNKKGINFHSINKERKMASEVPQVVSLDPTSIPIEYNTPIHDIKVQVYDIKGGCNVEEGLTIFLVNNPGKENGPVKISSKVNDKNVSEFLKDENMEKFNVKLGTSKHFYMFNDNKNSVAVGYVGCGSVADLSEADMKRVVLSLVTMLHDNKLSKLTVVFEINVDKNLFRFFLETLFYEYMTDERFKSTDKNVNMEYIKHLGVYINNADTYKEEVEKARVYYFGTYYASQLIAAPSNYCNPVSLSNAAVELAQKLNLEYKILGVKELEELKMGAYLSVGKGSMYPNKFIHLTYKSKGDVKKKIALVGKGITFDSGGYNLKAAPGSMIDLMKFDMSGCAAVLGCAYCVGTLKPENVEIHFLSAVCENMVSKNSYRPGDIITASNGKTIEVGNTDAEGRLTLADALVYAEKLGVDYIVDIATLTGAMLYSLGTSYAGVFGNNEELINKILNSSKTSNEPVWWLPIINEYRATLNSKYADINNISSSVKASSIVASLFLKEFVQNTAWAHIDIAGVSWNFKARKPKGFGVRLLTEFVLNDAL
The assay is described as follows: P. falciparum M17LAP inhibitors, primary screen, biochemical, fluorogenic H-Leu-NHMec substrate, 1536-well (AID 1619). It counts as functional.

Assay [4] deals with Voltage-dependent T-type calcium channel subunit alpha-1H (Homo sapiens, UniProt O95180). Type of assay: functional.
Voltage-dependent T-type calcium channel subunit alpha-1H, sequence (O95180 whole entry): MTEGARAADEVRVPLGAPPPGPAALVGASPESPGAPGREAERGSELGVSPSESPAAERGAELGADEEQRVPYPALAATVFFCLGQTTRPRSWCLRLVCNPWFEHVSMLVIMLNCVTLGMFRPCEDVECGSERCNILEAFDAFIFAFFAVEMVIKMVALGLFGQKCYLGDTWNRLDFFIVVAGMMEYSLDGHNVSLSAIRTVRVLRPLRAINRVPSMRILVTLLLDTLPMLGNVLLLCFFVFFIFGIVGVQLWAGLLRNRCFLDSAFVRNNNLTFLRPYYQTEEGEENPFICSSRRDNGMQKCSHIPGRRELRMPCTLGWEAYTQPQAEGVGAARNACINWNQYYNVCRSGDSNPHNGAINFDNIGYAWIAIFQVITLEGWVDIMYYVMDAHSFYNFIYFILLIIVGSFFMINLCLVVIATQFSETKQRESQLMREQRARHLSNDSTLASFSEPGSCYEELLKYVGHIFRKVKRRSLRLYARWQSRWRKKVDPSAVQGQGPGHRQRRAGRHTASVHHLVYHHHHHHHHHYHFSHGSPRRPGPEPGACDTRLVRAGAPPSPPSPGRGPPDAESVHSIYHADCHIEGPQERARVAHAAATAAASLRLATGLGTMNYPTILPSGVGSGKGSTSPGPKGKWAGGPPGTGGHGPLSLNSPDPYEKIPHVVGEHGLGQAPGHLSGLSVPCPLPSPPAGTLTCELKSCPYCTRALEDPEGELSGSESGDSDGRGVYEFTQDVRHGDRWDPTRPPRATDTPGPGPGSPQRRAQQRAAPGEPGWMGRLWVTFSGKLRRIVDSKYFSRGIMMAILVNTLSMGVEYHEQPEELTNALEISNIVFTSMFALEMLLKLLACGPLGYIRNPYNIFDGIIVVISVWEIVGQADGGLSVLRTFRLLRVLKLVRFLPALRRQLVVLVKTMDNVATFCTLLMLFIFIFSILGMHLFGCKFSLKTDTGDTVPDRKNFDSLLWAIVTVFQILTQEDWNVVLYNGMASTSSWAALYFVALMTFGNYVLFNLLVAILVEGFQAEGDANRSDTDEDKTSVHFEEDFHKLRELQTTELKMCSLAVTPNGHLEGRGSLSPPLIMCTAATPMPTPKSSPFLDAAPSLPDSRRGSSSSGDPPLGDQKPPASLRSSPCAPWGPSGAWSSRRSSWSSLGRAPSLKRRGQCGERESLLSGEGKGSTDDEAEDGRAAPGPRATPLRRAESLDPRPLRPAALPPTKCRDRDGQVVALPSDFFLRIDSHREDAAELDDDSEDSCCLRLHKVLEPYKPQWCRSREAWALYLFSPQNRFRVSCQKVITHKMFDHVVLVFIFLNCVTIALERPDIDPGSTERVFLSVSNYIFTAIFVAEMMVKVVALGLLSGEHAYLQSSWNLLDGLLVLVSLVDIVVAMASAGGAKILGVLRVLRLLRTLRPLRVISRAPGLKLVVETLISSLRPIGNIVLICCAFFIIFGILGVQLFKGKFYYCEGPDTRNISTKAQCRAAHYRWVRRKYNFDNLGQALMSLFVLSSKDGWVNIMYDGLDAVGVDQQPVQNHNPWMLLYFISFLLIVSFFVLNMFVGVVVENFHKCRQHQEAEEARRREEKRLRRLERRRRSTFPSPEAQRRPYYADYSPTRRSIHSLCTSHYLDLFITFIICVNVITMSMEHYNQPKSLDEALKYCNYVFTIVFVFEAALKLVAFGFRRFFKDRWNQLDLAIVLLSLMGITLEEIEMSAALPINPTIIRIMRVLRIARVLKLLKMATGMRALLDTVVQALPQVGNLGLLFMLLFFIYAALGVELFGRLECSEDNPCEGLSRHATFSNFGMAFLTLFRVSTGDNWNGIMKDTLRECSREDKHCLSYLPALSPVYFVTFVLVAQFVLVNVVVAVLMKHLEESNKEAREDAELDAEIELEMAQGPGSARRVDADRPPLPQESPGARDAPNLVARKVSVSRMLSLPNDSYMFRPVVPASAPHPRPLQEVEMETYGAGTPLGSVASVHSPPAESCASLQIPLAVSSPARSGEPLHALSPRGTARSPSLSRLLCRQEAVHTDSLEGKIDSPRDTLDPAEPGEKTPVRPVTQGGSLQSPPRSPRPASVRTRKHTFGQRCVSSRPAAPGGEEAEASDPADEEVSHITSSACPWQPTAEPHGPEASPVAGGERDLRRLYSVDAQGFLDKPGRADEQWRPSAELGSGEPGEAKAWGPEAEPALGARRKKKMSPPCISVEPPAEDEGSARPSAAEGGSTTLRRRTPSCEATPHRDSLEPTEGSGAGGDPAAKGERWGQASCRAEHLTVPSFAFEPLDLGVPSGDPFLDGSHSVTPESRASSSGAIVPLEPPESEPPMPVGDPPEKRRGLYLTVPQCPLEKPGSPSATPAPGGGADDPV
Assay [5] deals with T3, Heat shock factor protein 1 (Mus musculus, UniProt P38532).
T3 sequence (P38532 whole entry): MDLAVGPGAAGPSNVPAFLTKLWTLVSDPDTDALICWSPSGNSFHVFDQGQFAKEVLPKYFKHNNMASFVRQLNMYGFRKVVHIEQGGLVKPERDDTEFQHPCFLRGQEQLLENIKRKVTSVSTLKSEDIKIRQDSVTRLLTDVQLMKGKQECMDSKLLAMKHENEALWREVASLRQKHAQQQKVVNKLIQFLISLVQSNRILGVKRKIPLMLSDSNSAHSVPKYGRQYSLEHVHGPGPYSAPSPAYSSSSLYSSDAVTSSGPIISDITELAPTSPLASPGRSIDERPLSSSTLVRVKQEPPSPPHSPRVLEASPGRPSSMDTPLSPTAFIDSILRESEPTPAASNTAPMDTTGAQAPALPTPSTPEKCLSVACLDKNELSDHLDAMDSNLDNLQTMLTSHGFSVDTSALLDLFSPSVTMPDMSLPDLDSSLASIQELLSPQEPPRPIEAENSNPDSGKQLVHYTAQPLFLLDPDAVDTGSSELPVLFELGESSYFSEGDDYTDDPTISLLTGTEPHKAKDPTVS
The experiment in a line: enhancement of HSF1-driven luciferase signal – cell-based, NIH3T3, luminescence, dose retest, confirmation (AID 435004).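 Further: stress induced by proteasome inhibitor MG132 added 30 min after compound; luciferase reporter driven by HSF1 response element in NIH3T3 cells; actives raise luminescence as potentiators of the MG132 stress response.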 Type of assay: functional.

Assay [6] is described as follows: Luminescence Cell-Based Dose Response HTS to Identify Activators of Luciferase Translation or Activity in H4 […] Cells. [Related pubchem assays: 1829 (Project Summary), 1814 (Primary HTS)]. Type of assay: functional.
Assay [7] has as its system H4. The experiment in a line: Luminescence Cell-Based Dose Response HTS to Identify Activators of 5'UTR Stem-Loop Driven Prion Protein mRNA Translation in H4 Neuroglioblastoma Cells. [Related pubchem assays: 1829 (Project Summary), 1814 (Primary HTS)]. Type of assay: functional. The following applies: Homo sapiens.
Assay [8] has as its target T4, DNA repair protein RAD52 homolog (Homo sapiens, UniProt P43351).
T4 sequence (P43351 whole entry): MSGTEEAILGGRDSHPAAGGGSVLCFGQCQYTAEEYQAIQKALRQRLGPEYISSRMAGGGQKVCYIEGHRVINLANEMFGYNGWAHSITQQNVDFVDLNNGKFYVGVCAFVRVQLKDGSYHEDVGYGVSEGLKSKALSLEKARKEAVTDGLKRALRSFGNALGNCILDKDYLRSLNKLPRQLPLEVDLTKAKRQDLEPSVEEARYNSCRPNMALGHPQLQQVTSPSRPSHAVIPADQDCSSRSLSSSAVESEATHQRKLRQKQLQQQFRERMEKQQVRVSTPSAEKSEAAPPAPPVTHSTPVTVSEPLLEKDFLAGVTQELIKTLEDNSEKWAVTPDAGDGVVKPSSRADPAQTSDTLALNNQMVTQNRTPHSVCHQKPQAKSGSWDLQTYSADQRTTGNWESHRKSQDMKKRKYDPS
It counts as functional, biochemical.

Assay [9] concerns Streptococcus. The experiment in a line: GAS UMAA2166 growth inhibition – luminescence, BacTiterGlo, counter-screen for streptokinase expression inhibitor project, dose response (AID 1915).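 Further: potency for reduction of bacterial viability or growth.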 Type of assay: functional, organism-based. On the technique in general: A counterscreen serves to expose hits that act by an unwanted route or on another target.
Assay [10] deals with T5, Streptokinase A (Streptococcus pyogenes serotype M1, UniProt P10520).
T5 sequence (P10520 whole entry): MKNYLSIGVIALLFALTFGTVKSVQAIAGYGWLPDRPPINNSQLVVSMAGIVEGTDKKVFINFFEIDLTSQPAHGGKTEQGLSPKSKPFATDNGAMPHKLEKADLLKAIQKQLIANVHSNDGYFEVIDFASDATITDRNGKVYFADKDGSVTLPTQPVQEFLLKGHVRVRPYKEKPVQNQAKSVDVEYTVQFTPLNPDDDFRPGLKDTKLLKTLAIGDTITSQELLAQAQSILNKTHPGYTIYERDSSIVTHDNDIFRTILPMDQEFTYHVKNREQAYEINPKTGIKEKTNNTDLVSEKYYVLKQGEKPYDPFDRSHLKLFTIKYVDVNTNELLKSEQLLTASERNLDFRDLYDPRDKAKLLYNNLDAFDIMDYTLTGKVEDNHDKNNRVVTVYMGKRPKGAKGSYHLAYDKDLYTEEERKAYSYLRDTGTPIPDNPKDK
The experiment in a line: viability-normalized secreted streptokinase activity reduction – plasminogen activation absorbance, OD405, dose response (AID 1914).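 Further: secreted streptokinase activity via plasminogen activation per viability signal from cell pellet.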 Type of assay: functional, Streptococcus pyogenes M1 GAS.

Assay [11] has as its target T6, Ubiquitin-conjugating enzyme E2 N (Homo sapiens, UniProt P61088).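 Further: Dose-response confirmation in a TR-FRET assay detecting UBC13-driven polyubiquitin chain formation, inhibition measured.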
T6 sequence (P61088 whole entry): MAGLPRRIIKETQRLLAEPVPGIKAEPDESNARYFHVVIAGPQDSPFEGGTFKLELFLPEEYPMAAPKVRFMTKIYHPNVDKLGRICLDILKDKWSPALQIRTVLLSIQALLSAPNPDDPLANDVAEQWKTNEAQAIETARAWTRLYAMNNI
Type of assay: functional.

For assay [12], the system named is Streptococcus sp. 'group A'. The experiment in a line: Streptococcus pyogenes SK(-)GAS viability under kanamycin – luminescence, BacTiterGlo, confirmation, counter-screen for streptokinase expression inhibitor project, dose response (AID 1900). It counts as functional, organism-based.
The target of assay [13] is Nonstructural protein 1 (Influenza A virus, UniProt Q194T2). Type of assay: functional, Influenza A virus (A/California/07/2009(H1N1)).
Nonstructural protein 1, sequence (Q194T2 whole entry): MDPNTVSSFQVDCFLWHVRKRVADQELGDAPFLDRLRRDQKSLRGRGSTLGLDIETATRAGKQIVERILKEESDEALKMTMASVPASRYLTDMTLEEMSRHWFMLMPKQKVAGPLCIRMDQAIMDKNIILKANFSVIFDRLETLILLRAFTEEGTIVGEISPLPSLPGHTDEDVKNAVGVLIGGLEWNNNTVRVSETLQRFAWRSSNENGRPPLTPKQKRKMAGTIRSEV
Assay [14] is described as follows: Luminescence Cell-Based Dose Confirmation HTS to Identify Inhibitors of Platelet Dense Granule Release. [Related pubchem assays: 1663 (Primary HTS), 1678 (Summary of Project)]. It counts as functional.
The target of assay [15] is Luciferin 4-monooxygenase (Photinus pyralis, UniProt P08659). The assay is described as follows: inhibition of purified Photinus pyralis luciferase – biochemical, luminescence, dose response (AID 1891).
Luciferin 4-monooxygenase, sequence (P08659 whole entry): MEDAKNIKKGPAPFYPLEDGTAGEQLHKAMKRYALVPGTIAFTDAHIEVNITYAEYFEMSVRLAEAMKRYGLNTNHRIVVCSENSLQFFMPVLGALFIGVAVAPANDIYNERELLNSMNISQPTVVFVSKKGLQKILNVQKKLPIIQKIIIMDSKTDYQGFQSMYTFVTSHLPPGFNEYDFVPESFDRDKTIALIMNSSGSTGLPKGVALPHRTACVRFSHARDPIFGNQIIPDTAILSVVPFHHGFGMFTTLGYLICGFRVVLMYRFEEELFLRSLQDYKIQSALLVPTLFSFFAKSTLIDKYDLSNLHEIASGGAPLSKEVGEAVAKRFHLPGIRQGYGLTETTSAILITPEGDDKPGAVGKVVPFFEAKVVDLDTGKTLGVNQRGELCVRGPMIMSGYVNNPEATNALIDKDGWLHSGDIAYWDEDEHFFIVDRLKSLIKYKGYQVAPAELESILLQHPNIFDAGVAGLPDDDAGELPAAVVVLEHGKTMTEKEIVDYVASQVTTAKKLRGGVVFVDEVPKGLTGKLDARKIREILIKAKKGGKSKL
A short description of assay [16]: microbe, parasite or virus in culture. The following applies: Mycobacterium tuberculosis. It counts as functional.

Calls of active or inactive are those of the source.

What is called IC50 is the midpoint of a concentration-inhibition curve. A word on the AC50: it is the concentration giving half of the maximal activity seen. The term EC50 denotes the concentration at which the effect is half-maximal.

Cytochrome P450 3A4, sequence (P08684 whole entry): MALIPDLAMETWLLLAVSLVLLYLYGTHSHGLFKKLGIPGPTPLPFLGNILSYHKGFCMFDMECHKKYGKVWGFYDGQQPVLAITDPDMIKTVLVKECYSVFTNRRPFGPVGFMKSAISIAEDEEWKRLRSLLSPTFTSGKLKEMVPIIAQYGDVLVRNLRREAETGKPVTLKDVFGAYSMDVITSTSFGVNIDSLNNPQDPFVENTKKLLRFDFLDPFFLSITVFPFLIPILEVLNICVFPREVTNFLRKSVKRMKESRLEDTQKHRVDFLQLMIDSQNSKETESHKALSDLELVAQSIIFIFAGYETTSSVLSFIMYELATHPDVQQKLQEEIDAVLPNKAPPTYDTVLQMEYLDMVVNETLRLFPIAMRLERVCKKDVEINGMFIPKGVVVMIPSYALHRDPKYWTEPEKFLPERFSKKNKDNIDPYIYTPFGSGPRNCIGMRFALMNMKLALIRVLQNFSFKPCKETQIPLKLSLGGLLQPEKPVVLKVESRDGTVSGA

With `Cc1ccc(-c2n[nH]c3c2C(c2ccccc2)N(c2ccc(C(=O)O)cc2)C3=O)cc1` (stereo unspecified), in assay [1], the IC50 was 30.4 µM (active).

In the case of `Cc1nc(NCc2ccccc2)c2nc(-c3ccccc3)n(CCN(C)C)c2n1`, the AC50 in [2] was 12.6 µM (inconclusive).

Consider `C[C@@H]1C=C[C@](Cc2ccccc2)(C(=O)NCCCNc2ncc(C(F)(F)F)cc2Cl)N1C(=O)c1ccccc1`, for which, in assay [2], the half-maximal activity concentration (AC50) was 3.98 µM (inconclusive).

As to `CCOc1ccc(NC(=O)COC(=O)c2cccnc2)cc1`, the IC50 in [3] is 27.4 µM (active).

Turning to `COc1ccc(OC)c(NC(=O)C2C3C=CC(C3)C2C(=O)NCc2ccccn2)c1` (stereo unspecified), the IC50 in assay [1] is 89.5 µM (active).

On to `Cc1cc(S(=O)(=O)Nc2cccc(O)c2)c(C)s1`, for which the IC50 in assay [3] was 14.6 µM (active).

For the compound `Cc1nc2c(-c3ccc(F)cc3)c(C)nn2c(C)c1CCC(=O)N1CCC(Cc2ccccc2)CC1`, in assay [4], the EC50 is 6.64 µM (active).

As to `CCn1c(SCCOc2ccc(Cl)cc2)nnc1-c1cccs1`, the EC50 in [5] is > 260 µM (inactive); in [4] it was 5.63 µM (active).

On to `COC(=O)[C@@H]1C[C@@]2(O)[C@@H](O)[C@@H](O)[C@@H](O)C[C@H]2N1CC1CCCCC1`, for which the AC50 in [2] was 12.6 µM (inconclusive).

Regarding `O=C(O)c1ccc2c(c1)C1C=CCC1C(c1cc3c(cc1Br)OCO3)N2` (stereo unspecified), in assay [1], the half-inhibitory concentration (IC50) was 11 µM (active).

Consider `CCC1=C2CC[C@H]3C(=O)N(c4ccccc4)C(=O)[C@H]3[C@H]2[C@@]2(C)C(=O)N(CC(=O)OC)C(=O)N2C1=O`, for which the AC50 in [2] was 15.8 µM (inconclusive).

As for `O=C(Nc1cnc2ccccc2c1)C1COc2ccccc2O1` (stereo unspecified), the concentration giving a half-maximal response (EC50) in [6] was < 0.1 µM (active); in assay [4] it was 2.93 µM (active); in assay [7], 37.6 µM (active).

For the compound `CN(C)CCCN=C(S)NCC(c1ccc(Cl)cc1Cl)c1c[nH]c2ccccc12` (stereo unspecified), the concentration at half-maximal activity (AC50) in assay [8] is 6.45 µM (active). Moreover, the EC50 in assay [9] is 15.4 µM (active); in assay [10], > 150 µM (not active); in assay [12], 5 µM (active). Moreover, the IC50 in assay [11] was > 20 µM (inactive); in [13] it was 65.8 µM (active).

Regarding `Cc1ncc(N=Nc2ccccc2Cl)c(-c2ccccc2)n1`, in assay [13], the IC50 was 39.1 µM (active).

Regarding `Cn1cccc1/C=C1\SC(=S)N(NC(=O)c2ccccc2O)C1=O`, the IC50 in [1] is 44.6 µM (active).

Turning to `Cc1onc(-c2ccccc2Cl)c1C(=O)Nc1ccc(F)c(F)c1`, the EC50 in [14] is > 112 µM (not active); in [4] it was 5.58 µM (active); in assay [15] it was > 112 µM (not active).

For `Cc1c(N2C(=O)/C(=C/c3cccc4ccccc34)SC2=S)c(=O)n(-c2ccccc2)n1C`, in [13], the IC50 is > 100 µM (active).

With `CCN(CC)c1ccc(C(=C2C=CC(=[N+](CC)CC)C=C2)c2ccc(S(=O)(=O)O)cc2S(=O)(=O)[O-])cc1`, the IC50 in assay [13] is 17.7 µM (active).

With `CN1CCN(/N=C/c2c3ccccc3c(Cl)c3ccccc23)CC1`, the IC50 in assay [13] was 24.9 µM (active). Further, in assay [16], the CC50 is 24 µM (active).

As for `Cc1nccn1CC(=O)N/N=C/c1ccccc1O`, the IC50 in [13] was 18.4 µM (active).

For the origin of these results see ChEMBL document CHEMBL1201862, “PubChem BioAssay data set” (2004).
